Source: patent US20100029619A1, “FUSED HETEROCYCLIC COMPOUND” (TAKEDA PHARMACEUTICAL COMPANY LIMTED, priority 2006, published 2010)

Row | Compound | melting point
1 | Cc1cccc2nc(NC(=O)c3ccc(C(C)(C)C)cc3)cn12 [Example 65, 4-tert-Butyl-N-(5-methylimidazo[1,2-a]pyridin-2-yl)benzamide] | 204 to 205 °C
2 | CC(O)c1ccc2nc(NC(=O)c3ccc(C(C)(C)C)cc3)cn2c1 (stereo not shown) [Example 71, 4-tert-butyl-N-[6-(1-hydroxyethyl)imidazo[1,2-a]pyridin-2-yl]benzamide] | 249 to 250 °C
3 | CC(C)(C)c1ccc(C(=O)Nc2cn3cc(-c4ncc[nH]4)ccc3n2)cc1 [Example 73, 4-tert-butyl-N-[6-(1H-imidazol-2-yl)imidazo[1,2-a]pyridin-2-yl]benzamide] | 300 to 301 °C
4 | CC(C)(C)c1ccc(C(=O)Nc2cn3cc(-c4cnco4)ccc3n2)cc1 [Example 74, 4-tert-butyl-N-[6-(1,3-oxazol-5-yl)imidazo[1,2-a]pyridazin-2-yl]benzamide] | 265 to 266 °C
5 | CC(C)(C)c1ccc(C(=O)Nc2cn3cc(-c4cnc[nH]4)ccc3n2)cc1 [Example 76, 4-tert-butyl-N-[6-(1H-imidazol-5-yl)imidazo[1,2-a]pyridin-2-yl]benzamide] | 297 to 298 °C
6 | CC(C)(C)c1ccc(C(=O)Nc2cn3cc(C#N)ccc3n2)cc1 [Example 78, 4-tert-butyl-N-[6-cyanoimidazo[1,2-a]pyridin-2-yl]benzamide] | 300 to 301 °C
7 | CN(C)Cc1ccc2nc(NC(=O)c3ccc(C(C)(C)C)cc3)cn2c1 [Example 80, 4-tert-butyl-N-[6-(dimethylaminomethyl)imidazo[1,2-a]pyridin-2-yl]benzamide] | 236 to 237 °C
8 | CN(C)c1ccc(C(=O)Nc2cn3cc(-n4ccnc4)ccc3n2)cc1 [Example 85, 4-dimethylamino-N-[6-(1H-imidazol-1-yl)imidazo[1,2-a]pyridin-2-yl]benzamide] | 247 to 248 °C
9 | CC(C)(C)c1ccc(C(=O)Nc2cn3cc(-n4ccnc4)ccc3n2)cn1 [Example 86, 6-tert-butyl-N-[6-(1H-imidazol-1-yl)imidazo[1,2-a]pyridin-2-yl]nicotinamide] | 242 to 245 °C
10 | O=C(Nc1cn2cc(-n3ccnc3)ccc2n1)c1ccc(-c2ncc[nH]2)cc1 [Example 88, 4-(1H-imidazol-2-yl)-N-[6-(1H-imidazol-1-yl)imidazo[1,2-a]pyridin-2-yl]benzamide] | 276 to 279 °C (dec.)
11 | O=C(Nc1cn2cc(-n3ccnc3)ccc2n1)c1ccc(-c2ccoc2)cc1 [Example 89, 4-(3-furyl)-N-[6-(1H-imidazol-1-yl)imidazo[1,2-a]pyridin-2-yl]benzamide] | 261 to 263 °C
12 | CC(C)(CO)c1ccc(C(=O)Nc2cn3cc(Cl)ccc3n2)cc1 [Example 90, N-[6-chloroimidazo[1,2-a]pyridin-2-yl]-4-(2-hydroxy-1,1-dimethylethyl)benzamide] | 240 to 242 °C
13 | CC(C)(N)c1ccc(C(=O)Nc2cn3cc(Cl)ccc3n2)cc1 [Example 92, 4-(1-amino-1-methylethyl)-N-(6-chloroimidazo[1,2-a]pyridin-2-yl)benzamide] | 235 to 237 °C
14 | CC(C)(CN)c1ccc(C(=O)Nc2cn3cc(Cl)ccc3n2)cc1 [Example 94, 4-(2-amino-1,1-dimethylethyl)-N-(6-chloroimidazo[1,2-a]pyridin-2-yl)benzamide] | 245 to 247 °C
15 | O=C(Nc1cn2cc(Cl)ccc2n1)c1ccc(-n2cccn2)cc1 [Example 95, N-(6-chloroimidazo[1,2-a]pyridin-2-yl)-4-(1H-pyrazol-1-yl)benzamide] | 287 to 289 °C
16 | CC(C)c1ccc(C(=O)Nc2cn3cc(-n4ccnc4)ccc3n2)cc1 [Example 97, N-[6-(1H-imidazol-1-yl)imidazo[1,2-a]pyridin-2-yl]-4-isopropylbenzamide] | 291 to 293 °C
17 | CC(C)(C)c1ccc(C(=O)Nc2cn3cc(-c4cnco4)ccc3n2)cn1 [Example 100, 6-tert-butyl-N-[6-(1,3-oxazol-5-yl)imidazo[1,2-a]pyridin-2-yl]nicotinamide] | 251 to 253 °C
18 | CC(C)(C)c1ccc(C(=O)Nc2cn3cc(-c4cccnc4)ccc3n2)cn1 [Example 102, 6-tert-butyl-N-(6-(pyridin-3-yl)imidazo[1,2-a]pyridin-2-yl)nicotinamide] | 272 to 274 °C
19 | CC(C)(CO)c1ccc(C(=O)Nc2cn3cc(-n4ccnc4)ccc3n2)cc1 [Example 103, 4-(2-hydroxy-1,1-dimethylethyl)-N-[6-(1H-imidazol-1-yl)imidazo[1,2-a]pyridin-2-yl]benzamide] | 278 to 280 °C
20 | Cn1cc(-c2ccc3nc(NC(=O)c4ccc(C(C)(C)C)nc4)cn3c2)cn1 [Example 105, 6-tert-butyl-N-[6-(1-methyl-1H-pyrazol-4-yl)imidazo[1,2-a]pyridin-2-yl]nicotinamide] | 228 to 230 °C

Row | Compound | melting point
21 | COc1ccc(-c2ccc3nc(NC(=O)c4ccc(C(C)(C)C)cc4)cn3c2)cn1 [Example 106, 4-tert-butyl-N-[6-(6-methoxypyridin-3-yl)imidazo[1,2-a]pyridin-2-yl]benzamide] | 245 to 247 °C
22 | CC(C)(C)c1ccc(C(=O)Nc2cn3cc(-c4cccs4)ccc3n2)cc1 [Example 107, 4-tert-butyl-N-[6-(2-thienyl)imidazo[1,2-a]pyridin-2-yl]benzamide] | 273 to 275 °C
23 | CC(C)(C)c1ccc(C(=O)Nc2cn3cc(-c4ccsc4)ccc3n2)cc1 [Example 108, 4-tert-butyl-N-[6-(3-thienyl)imidazo[1,2-a]pyridin-2-yl]benzamide] | 261 to 263 °C
24 | CS(=O)(=O)Nc1ccc(C(=O)Nc2cn3cc(Cl)ccc3n2)cc1 [Example 110, N-(6-chloroimidazo[1,2-a]pyridin-2-yl)-4-[(methylsulfonyl)amino]benzamide] | 293 to 295 °C
25 | CC(C)(C)c1ccc(C(=O)Nc2cn3cc(-c4cn[nH]c4)ccc3n2)cn1 [Example 114, 6-tert-butyl-N-[6-(1H-pyrazol-4-yl)imidazo[1,2-a]pyridin-2-yl]nicotinamide] | 238 to 240 °C
26 | CC(C)(CC(=O)O)c1ccc(C(=O)Nc2cn3cc(Cl)ccc3n2)cc1 [Example 117, 3-(4-{[(6-chloroimidazo[1,2-a]pyridin-2-yl)amino]carbonyl}phenyl)-3-methylbutanoic acid] | 304 to 306 °C (dec.)
27 | CC(C)(CCC(=O)O)c1ccc(C(=O)Nc2cn3cc(Cl)ccc3n2)cc1 [Example 118, 4-(4-{[(6-chloroimidazo[1,2-a]pyridin-2-yl)amino]carbonyl}phenyl)-4-methylpentanoic acid] | 309 to 311 °C (dec.)
28 | CC(=O)NCC(C)(C)c1ccc(C(=O)Nc2cn3cc(Cl)ccc3n2)cc1 [Example 122, 4-[2-(acetylamino)-1,1-dimethylethyl]-N-(6-chloroimidazo[1,2-a]pyridin-2-yl)benzamide] | 220 to 222 °C
29 | CCC(=O)NCC(C)(C)c1ccc(C(=O)Nc2cn3cc(Cl)ccc3n2)cc1 [Example 126, N-(6-chloroimidazo[1,2-a]pyridin-2-yl)-4-[1,1-dimethyl-2-(propionylamino)ethyl]benzamide] | 225 to 227 °C
30 | CCNC(=O)C(C)(C)c1ccc(C(=O)Nc2cn3cc(Cl)ccc3n2)cc1 [Example 127, N-(6-chloroimidazo[1,2-a]pyridin-2-yl)-4-[2-(ethylamino)-1,1-dimethyl-2-oxoethyl]benzamide] | 228 to 230 °C
31 | CNC(=O)CC(C)(C)c1ccc(C(=O)Nc2cn3cc(Cl)ccc3n2)cc1 [Example 128, N-(6-chloroimidazo[1,2-a]pyridin-2-yl)-4-[1,1-dimethyl-3-(methylamino)-3-oxopropyl]benzamide] | 228 to 230 °C
32 | CCC(=O)NC(C)(C)c1ccc(C(=O)Nc2cn3cc(Cl)ccc3n2)cc1 [Example 129, N-(6-chloroimidazo[1,2-a]pyridin-2-yl)-4-[1-methyl-1-(propionylamino)ethyl]benzamide] | 249 to 252 °C
33 | CC(C)(C#N)c1ccc(C(=O)Nc2cn3cc(-n4ccnc4)ccc3n2)cc1 [Example 130, 4-(1-cyano-1-methylethyl)-N-[6-(1H-imidazol-1-yl)imidazo[1,2-a]pyridin-2-yl]benzamide] | 241 to 244 °C
34 | CCN(c1ccc(C(=O)Nc2cn3cc(Cl)ccc3n2)cc1)S(C)(=O)=O [Example 131, N-(6-chloroimidazo[1,2-a]pyridin-2-yl)-4-[ethyl(methylsulfonyl)amino]benzamide] | 245 to 247 °C
35 | CC(=O)NCC(C)(C)c1ccc(C(=O)Nc2cn3cc(-n4ccnc4)ccc3n2)cc1 [Example 135, 4-[2-(acetylamino)-1,1-dimethylethyl]-N-[6-(1H-imidazol-1-yl)imidazo[1,2-a]pyridin-2-yl]benzamide] | 242 to 244 °C
36 | CCCNCC(C)(C)c1ccc(C(=O)Nc2cn3cc(-n4ccnc4)ccc3n2)cc1 [Example 136, 4-[1,1-dimethyl-2-(propylamino)ethyl]-N-[6-(1H-imidazol-1-yl)imidazo[1,2-a]pyridin-2-yl]benzamide] | 162 to 164 °C
37 | CC(C)(C)c1ccc(C(=O)Nc2cn3nc(-n4cnc(CC#N)c4)ccc3n2)cc1 [Example 142, 4-tert-butyl-N-{6-[4-(cyanomethyl)-1H-imidazol-1-yl]imidazo[1,2-b]pyridazin-2-yl}benzamide] | 314 to 316 °C (dec.)
38 | Cc1cn(-c2ccc3nc(NC(=O)c4ccc(C(C)(C)C)cc4)cn3n2)c(C)n1 [Example 143, 4-tert-butyl-N-[6-(2,4-dimethyl-1H-imidazol-1-yl)imidazo[1,2-b]pyridazin-2-yl]benzamide] | 254 to 255 °C
39 | CCc1nc(C)cn1-c1ccc2nc(NC(=O)c3ccc(C(C)(C)C)cc3)cn2n1 [Example 144, 4-tert-butyl-N-[6-(2-ethyl-4-methyl-1H-imidazol-1-yl)imidazo[1,2-b]pyridazin-2-yl]benzamide] | 220 to 221 °C
40 | CC(C)(C)c1ccc(C(=O)Nc2cn3nc(-n4cnc(CO)c4)ccc3n2)cc1 [Example 145, 4-tert-butyl-N-{6-[4-(hydroxymethyl)-1H-imidazol-1-yl]imidazo[1,2-b]pyridazin-2-yl}benzamide] | 298 to 301 °C
